We go through 10 compounds from patent publication US5710129A, “Inhibitors of SH2-mediated processes” (Ariad Pharmaceuticals, Inc., priority 1995, dated 1998).

The target of one test is T1, pp72^syk (163-265) (Homo sapiens, UniProt P43405).
T1 construct: Assays were run in HBS using 270 nM pp72^syk (163-265)
Briefly: C-Syk competitive binding assay, surface plasmon resonance (BIAcore). Conditions: 270 nM protein; hemiphosphorylated γ-chain ITAM of human FcεRI as ligand; read-out: CSyk IC-50. As to the method: (§1) Binding was measured by competition using surface plasmon resonance (Malmqvist, M. (1993) Current Opinions in Immunology 5, 282-286) as implemented in the BIAcore Biosensor (Pharmacia Biosensor, Piscataway, N.J.). […] Results were compared to binding measured in the absence of competitor and expressed as percent inhibition. IC50values reflect the concentration of inhibitor required to reduce binding by 50%. Specifics of individual assays are described below. All asssays were run in HEPES Buffered Saline (HBS) composed of 10 mM HEPES (pH 7.4)/150 mM NaCl/3.4 mM EDTA/0.05% Surfactant P20at 25° C. and a flow rate of 5 uL min^-1.
A pp72^syk peptide ligand corresponding to a hemiphosphorylated γ-chain ITAM of human Fcε RI [DGVY(PO4)TGLSTRNQETYETLK] was synthesized as part of a larger peptide [Ac-CGGDGVY(PO4)TGLSTRNQETYETLK-NH2 ] and used to generate a C-Syk-sensitive biosensor surface as described above for tandem syk. Assays were run in HBS using 270 nM pp72^syk (163-265)±test inhibitor.
Background: Surface plasmon resonance follows binding to a sensor surface in real time, without labels.

Another test has as its target T2, pp72^syk (1-265) (Homo sapiens, UniProt P43405).
T2 construct: Assays were run in HBS using 20 nM pp72^syk (1-265)
Briefly: Tandem Syk competitive binding assay, surface plasmon resonance (BIAcore). Conditions: for IC50 / N,CSyk 1%/Min: 20 nM protein, γ-chain ITAM of human FcεRI as ligand; for IC50: read-out: N,CSyk IC-50. Here is the method: as §1
A pp72^syk peptide ligand corresponding to the γ-chain ITAM of human Fcε RI [DGVY(PO4)TGLSTRNQETY(PO4)ETLK] [SEQ ID NO:18] was synthesized as part of a larger peptide [Ac-CGGDGVY(PO4)TGLSTRNQETY-(PO4)ETLK-NH2] [SEQ ID NO:19] and used to generate a Syk-sensitive biosensor surface. Specifically, a Biosensor Chip CM5was activated with 200 mM ethyl-3-(3-dimethylaminopropyl)-carbodiimide hydrochloride (EDC)/50 mM N-hydroxysuccinimide (NHS) to generate a surface reactive to primary amines; treated with ethylenediamine to generate a surface rich in primary amines; activated with m-maleimidobenzoyl-N-hydroxysuccinimide ester (sulfo-MBS; 50 mM in 25 mM NaHCO3) to generate a surface reactive to free thiols; and the ITAM peptide immobilized through the N-terminal cysteine. Unreacted sites were blocked with β-mercaptoethanol and the chip cleaned of noncovalently bound peptide using 6M guanidine hydrochloride. Assays were run in HBS using 20 nM pp72^syk (1-265)±test inhibitor.

The next test has as its target T3, pp70^ZAP (1-259) (Homo sapiens, UniProt P43403).
T3 sequence (P43403 1-259): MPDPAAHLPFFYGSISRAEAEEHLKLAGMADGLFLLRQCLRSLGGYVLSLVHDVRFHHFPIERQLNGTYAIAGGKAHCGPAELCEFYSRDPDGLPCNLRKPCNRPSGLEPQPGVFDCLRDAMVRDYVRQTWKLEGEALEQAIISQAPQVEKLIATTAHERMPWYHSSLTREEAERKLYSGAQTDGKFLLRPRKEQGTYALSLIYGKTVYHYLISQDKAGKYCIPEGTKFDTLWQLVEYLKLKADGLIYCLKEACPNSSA
Briefly: Tandem ZAP competitive binding assay, surface plasmon resonance (BIAcore). The conditions noted are these: for IC50: 10 nM protein, ζ-chain ITAM-1 of human T-cell receptor as ligand, read-out: N,CZap IC-50. As to the method:
as §1
A pp70^ZAP peptide ligand corresponding to the .zeta.-chain ITAM-1 of the human T-cell receptor [NQLY(PO4)NELNIGRREEY(PO4)DVLD] [SEQ ID NO:20] was synthesized as a part of a larger peptide [Ac-KGGNQLY(PO4)NELNIGRREEY-(PO4)DVLD-NH2 ] [SEQ ID NO:21] and used to generate a ZAP-sensitive biosensor surface. Specifically, a Biosensor Chip CM5was activated with 200 mM EDC/50 mM NHS to generate a surface reactive to primary amines and the ITAM peptide immobilized through the N-terminal lysine. Unreacted sites were blocked with ethanolamine (1M in water) and the chip cleaned of non-covalently bound peptide using 6M guanidine hydrochloride. Assays were run in HBS using 10 nM pp70^ZAP (1-259)±test inhibitor. (The designation "b22" indicates use of a corresponding γ-chain ITAM for the .zeta.-chain ITAM.)

The target of a further test is T4, pp60^src (144-251) (Homo sapiens, UniProt P12931).
T4 construct: Assays were run in HBS using 270 nM pp60^src (144-251)
T4 sequence (P12931 144-251): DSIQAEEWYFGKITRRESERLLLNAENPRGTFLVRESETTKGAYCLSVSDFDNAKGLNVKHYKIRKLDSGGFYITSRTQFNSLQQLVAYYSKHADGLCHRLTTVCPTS
Briefly: Src competitive binding assay, surface plasmon resonance (BIAcore). Conditions: for IC50: 270 nM protein, hamster Middle-T antigen phosphopeptide as ligand, read-out: Src IC-50. Here is the method:
as §1
A p60^src peptide ligand corresponding to the hamster Middle-T antigen [QY(PO4)EEIPI] [SEQ ID NO:22] was synthesized as a part of a larger peptide [Ac-KGGQY(PO4)EEIPI-NH2 ] [SEQ ID NO:23] and used to generate a src-sensitive biosensor surface as described above for tandem ZAP. Assays were run in HBS using 270 nM pp60^src (144-251)±test inhibitor.

SMILES strings stand for the structures. Several values for one entry are separate records, joined by “and”; a condition that tells them apart may be missing. Identical values can stand only once. Square brackets hold non-standard residues; d marks the D form. Peptide text beside a SMILES is read from it. * marks the point of attachment. Tyr(3,5-(NO2)2) = N[C@@H](Cc1cc([N+](=O)[O-])c(O)c([N+](=O)[O-])c1)C(=O)O; Acetyl(9-fluorenyl) = O=C(CC1c2ccccc2-c2ccccc21)*; 2Nal = N[C@@H](Cc1ccc2ccccc2c1)C(=O)O; Fmoc = O=C(OCC1c2ccccc2-c2ccccc21)*; Butanoyl(4-Ph) = O=C(CCCc1ccccc1)*; 2Naphthoyl = O=C(c1ccc2ccccc2c1)*; X1 = CC(CC(=O)*)c1ccccc1

With `CC(C)C[C@H](NC(=O)[C@@H](NC(=O)[C@H](CCC(=O)O)NC(=O)[C@H](Cc1cc([N+](=O)[O-])c(O)c([N+](=O)[O-])c1)NC(=O)CC1c2ccccc2-c2ccccc21)[C@@H](C)O)C(N)=O` ({Acetyl(9-fluorenyl)}-[Tyr(3,5-(NO2)2)]ETL-NH2), the IC50 at pp72^syk (163-265) is 26 µM; at pp72^syk (1-265), 50 µM; at pp70^ZAP (1-259), greater than 100 µM; at pp60^src (144-251) it was 710 µM.
Consider `CC(C)C[C@H](NC(=O)[C@@H](NC(=O)[C@H](CCC(=O)O)NC(=O)[C@H](Cc1cc([N+](=O)[O-])c(O)c([N+](=O)[O-])c1)NC(=O)c1ccc2ccccc2c1)[C@@H](C)O)C(N)=O` (2Naphthoyl-[Tyr(3,5-(NO2)2)]ETL-NH2), for which the IC50 at pp72^syk (163-265) was 35 µM; at pp72^syk (1-265), 380 µM; at pp60^src (144-251) it was greater than 1000 µM. The “N,CSyk 1%/Min” value on pp72^syk (1-265) came out at 67 µM. The “N,CZap inhibition” value on pp70^ZAP (1-259) (@ 100 (μM)) is “ni”.
Turning to `CC(C)C[C@H](NC(=O)CNC(=O)[C@@H](NC(=O)[C@H](Cc1cc([N+](=O)[O-])c(O)c([N+](=O)[O-])c1)NC(=O)OCC1c2ccccc2-c2ccccc21)[C@@H](C)O)C(N)=O` [TGLNH2] (Fmoc-[Tyr(3,5-(NO2)2)]TGL-NH2), the “N,CSyk percent inhibition” value at pp72^syk (1-265) (@ 23 (μM)) is given as 35%.
For `CC(C)C[C@H](NC(=O)[C@@H](NC(=O)[C@H](CC(=O)O)NC(=O)[C@H](Cc1cc([N+](=O)[O-])c(O)c([N+](=O)[O-])c1)NC(=O)OCC1c2ccccc2-c2ccccc21)C(C)C)C(N)=O` [DVLNH2] (Fmoc-[Tyr(3,5-(NO2)2)]DVL-NH2), the IC50 at pp72^syk (1-265) is 24 µM and 30 µM; at pp70^ZAP (1-259), greater than 100 µM. This compound also displayed a Src percent inhibition at pp60^src (144-251) (@ 100 (μM)) of 25%.
Consider `CC(=O)N[C@@H](Cc1ccccc1)C(=O)N[C@@H](Cc1cc([N+](=O)[O-])c(O)c([N+](=O)[O-])c1)C(=O)N[C@@H](CCC(=O)O)C(=O)N[C@H](C(=O)N[C@@H](CC(C)C)C(N)=O)[C@@H](C)O` (Ac-F[Tyr(3,5-(NO2)2)]ETL-NH2), for which the results for the IC50 on pp72^syk (163-265), on pp72^syk (1-265) and on pp70^ZAP (1-259) were 200 µM, greater than 100 µM and greater than 1000 µM, respectively.
For `CC(C)C[C@H](NC(=O)[C@@H](NC(=O)[C@H](CCC(=O)O)NC(=O)[C@H](Cc1cc([N+](=O)[O-])c(O)c([N+](=O)[O-])c1)NC(=O)CCCc1ccccc1)[C@@H](C)O)C(N)=O` ({Butanoyl(4-Ph)}-[Tyr(3,5-(NO2)2)]ETL-NH2; N-terminus assumed), the “N,CSyk 1%/Min” value at pp72^syk (1-265) was 48 µM.
As for `CC(=O)N[C@@H](Cc1ccc2ccccc2c1)C(=O)N[C@@H](Cc1cc([N+](=O)[O-])c(O)c([N+](=O)[O-])c1)C(=O)N[C@@H](CCC(=O)O)C(=O)N[C@H](C(=O)N[C@@H](CC(C)C)C(N)=O)[C@@H](C)O` (Ac-[2Nal][Tyr(3,5-(NO2)2)]ETL-NH2), the figures for the IC50 at pp72^syk (163-265), at pp72^syk (1-265) and at pp70^ZAP (1-259) were greater than 500 µM, greater than 100 µM and greater than 500 µM, respectively.
With `CC(C)C[C@H](NC(=O)[C@H](CCC(=O)O)NC(=O)[C@H](CC(N)=O)NC(=O)[C@H](Cc1cc([N+](=O)[O-])c(O)c([N+](=O)[O-])c1)NC(=O)OCC1c2ccccc2-c2ccccc21)C(N)=O` [NELNH2] (Fmoc-[Tyr(3,5-(NO2)2)]NEL-NH2), the “N,CSyk percent inhibition” value at pp72^syk (1-265) (@ 50 (μM)) came out at 15%. For the same compound, the “N,CZap percent inhibition” value at pp70^ZAP (1-259) (@ 50 (μM)) worked out at 10%. Also, the Src percent inhibition on pp60^src (144-251) (@ 50 (μM)) is 5%.
Turning to `CC(C)C[C@H](NC(=O)[C@@H](NC(=O)[C@H](CCC(=O)O)NC(=O)[C@H](Cc1cc([N+](=O)[O-])c(O)c([N+](=O)[O-])c1)NC(=O)CC(C)c1ccccc1)[C@@H](C)O)C(N)=O` (stereo partly drawn) (X1-[Tyr(3,5-(NO2)2)]ETL-NH2), at pp72^syk (1-265), the “N,CSyk 1%/Min” value was 14 µM.
As to `CC(=O)N[C@H](Cc1ccccc1)C(=O)N[C@@H](Cc1cc([N+](=O)[O-])c(O)c([N+](=O)[O-])c1)C(=O)N[C@@H](CCC(=O)O)C(=O)N[C@H](C(=O)N[C@@H](CC(C)C)C(N)=O)[C@@H](C)O` (Ac-[dF][Tyr(3,5-(NO2)2)]ETL-NH2), the IC50 is 50 µM on pp72^syk (163-265), greater than 100 µM at pp70^ZAP (1-259) and 500 µM on pp60^src (144-251).
